In assay [1] the target is T1, Oxysterols receptor LXR-beta (Homo sapiens, UniProt P55055).
T1 sequence (P55055 whole entry): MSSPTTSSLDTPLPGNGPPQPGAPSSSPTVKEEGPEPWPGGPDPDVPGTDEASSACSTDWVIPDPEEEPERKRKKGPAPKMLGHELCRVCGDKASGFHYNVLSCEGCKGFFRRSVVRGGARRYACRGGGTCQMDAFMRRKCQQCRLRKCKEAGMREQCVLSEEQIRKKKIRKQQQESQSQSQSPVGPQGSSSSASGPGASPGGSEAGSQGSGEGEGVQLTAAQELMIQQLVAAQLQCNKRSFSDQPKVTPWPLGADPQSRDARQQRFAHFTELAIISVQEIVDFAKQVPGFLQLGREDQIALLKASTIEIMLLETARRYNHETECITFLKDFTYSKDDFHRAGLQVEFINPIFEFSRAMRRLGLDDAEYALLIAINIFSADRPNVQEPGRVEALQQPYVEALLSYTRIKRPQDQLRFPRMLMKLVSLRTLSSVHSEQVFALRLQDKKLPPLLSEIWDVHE
The format is functional, cell-based.

The target of the next assay is T2, Protein skinhead-1 (Caenorhabditis elegans, UniProt P34707).
T2 sequence (P34707 whole entry): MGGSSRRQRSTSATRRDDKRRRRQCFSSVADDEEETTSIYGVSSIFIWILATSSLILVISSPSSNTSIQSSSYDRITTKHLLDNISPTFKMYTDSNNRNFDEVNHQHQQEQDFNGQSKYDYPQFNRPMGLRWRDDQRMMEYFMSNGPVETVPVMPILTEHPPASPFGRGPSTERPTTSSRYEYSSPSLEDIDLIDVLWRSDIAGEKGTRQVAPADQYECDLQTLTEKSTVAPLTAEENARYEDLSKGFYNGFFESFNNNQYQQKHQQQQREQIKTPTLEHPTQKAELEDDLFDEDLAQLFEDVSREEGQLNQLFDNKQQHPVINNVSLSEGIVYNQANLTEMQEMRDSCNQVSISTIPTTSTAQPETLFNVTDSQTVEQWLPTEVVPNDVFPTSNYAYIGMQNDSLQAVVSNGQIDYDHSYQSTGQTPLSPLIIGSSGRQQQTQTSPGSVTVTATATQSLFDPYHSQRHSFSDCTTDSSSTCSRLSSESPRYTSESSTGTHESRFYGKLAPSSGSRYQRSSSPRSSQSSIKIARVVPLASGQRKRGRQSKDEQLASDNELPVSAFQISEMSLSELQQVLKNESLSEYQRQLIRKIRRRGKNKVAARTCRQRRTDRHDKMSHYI
Type of assay: functional.

Assay [2] in a line: cells.
Assay [3] is described as follows: P. falciparum ATP4 D1247Y mutant growth inhibitors, dose response, NITD609-resistant line, SYBR Green, dry powder (AID 1159571).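 Note: parasites synchronized at ring stage by sorbitol before testing.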 The format is functional, cell-based.
Assay [4] can be described thus: CTGF mRNA reduction under YAP1 overexpression, dose response, mechanism study for YAP1 pathway inhibitor project, DLD1 cells, RT-qPCR, cherry-pick (AID 1053127). The format is functional, cell-based. The conditions noted are these: DLD-1. On the technique in general: Real-time PCR tracks product formation cycle by cycle.
Assay [5] is described as follows: P. falciparum Dd2 growth inhibitors, dose response, SYBR Green, cherry-picked samples (AID 1159567). The format is functional, cell-based.
The nature of assay [6]: HepG2 cell cytotoxicity, dose response, cytotoxicity control, plate reader, dry powder samples (AID 1159569).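 Note: inhibitor potency with signal falling toward the positive control level.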 Type of assay: functional, cell-based.
A short description of assay [7]: P. falciparum Dd2 growth inhibitors, dose response, SYBR Green, dry powder samples (AID 1159566).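 Note: potency for growth inhibition with lower SYBR green DNA signal.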 The format is functional, cell-based.
A short description of assay [8]: P. falciparum 3D7-ScDHODH growth inhibitors, dose response, SYBR Green, dry powder samples (AID 1159570).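 Note: parasite growth measured after 72 hours of compound exposure.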 The format is functional, cell-based.
The target in assay [9] is T1, Oxysterols receptor LXR-beta. Type of assay: functional, cell-based. This is another data set of the same source.
The target of assay [10] is Disintegrin and metalloproteinase domain-containing protein 17 (Homo sapiens, UniProt P78536). Put plainly: exosite inhibitors of ADAM17, dose response, biochemical (AID 743260).
Chain of Disintegrin and metalloproteinase domain-containing protein 17 (P78536 whole entry, the tested form may be a part): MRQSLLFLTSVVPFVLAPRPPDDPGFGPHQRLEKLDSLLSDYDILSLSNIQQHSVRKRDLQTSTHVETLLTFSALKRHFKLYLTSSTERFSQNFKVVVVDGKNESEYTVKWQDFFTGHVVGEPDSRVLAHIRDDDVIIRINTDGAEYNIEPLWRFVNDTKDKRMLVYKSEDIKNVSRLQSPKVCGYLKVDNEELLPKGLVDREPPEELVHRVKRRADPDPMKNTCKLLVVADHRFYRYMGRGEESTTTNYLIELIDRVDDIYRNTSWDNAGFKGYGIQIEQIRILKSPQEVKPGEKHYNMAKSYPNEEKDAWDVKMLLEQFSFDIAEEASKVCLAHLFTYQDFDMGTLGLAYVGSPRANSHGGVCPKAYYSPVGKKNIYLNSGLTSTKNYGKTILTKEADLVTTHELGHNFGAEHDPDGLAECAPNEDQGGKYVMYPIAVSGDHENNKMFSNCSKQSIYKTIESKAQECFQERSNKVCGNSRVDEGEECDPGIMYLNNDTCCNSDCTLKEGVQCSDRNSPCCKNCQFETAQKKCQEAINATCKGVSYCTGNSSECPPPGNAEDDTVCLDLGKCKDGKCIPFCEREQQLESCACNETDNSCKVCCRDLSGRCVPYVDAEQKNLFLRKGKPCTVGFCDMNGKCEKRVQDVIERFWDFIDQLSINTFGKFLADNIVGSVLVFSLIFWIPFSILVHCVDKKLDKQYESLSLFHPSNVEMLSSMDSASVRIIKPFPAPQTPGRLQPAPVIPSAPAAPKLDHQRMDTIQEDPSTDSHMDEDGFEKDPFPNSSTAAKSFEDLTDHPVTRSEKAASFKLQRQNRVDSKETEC
Assay [11] can be described thus: ADAM10 protease inhibitors, dose response, selectivity assay for ADAM17 exosite inhibitor project, biochemical, FRET peptide substrate, recombinant human ADAM10 (AID 743259).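 Note: ADAM10 enzyme cleaving a FRET peptide substrate.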
In assay [12] the target is T3, Carboxy-terminal domain RNA polymerase II polypeptide A small phosphatase 1 (Homo sapiens, UniProt Q9GZU7).
T3 sequence (Q9GZU7 whole entry): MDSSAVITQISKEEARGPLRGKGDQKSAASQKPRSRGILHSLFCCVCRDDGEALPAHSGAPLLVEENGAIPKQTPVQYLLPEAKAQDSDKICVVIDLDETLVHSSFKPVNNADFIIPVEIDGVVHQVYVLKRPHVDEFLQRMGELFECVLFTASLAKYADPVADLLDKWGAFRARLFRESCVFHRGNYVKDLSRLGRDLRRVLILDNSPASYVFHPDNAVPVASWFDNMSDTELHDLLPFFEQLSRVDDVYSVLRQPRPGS
Put plainly: inhibitors of CTDSP1, concentration-response testing, biochemical assay, absorbance-based, actives from ultra-high-throughput screening (AID 540297). The format is functional.

Assay [13] deals with T4, Nuclear receptor subfamily 0 group B member 1 (Homo sapiens, UniProt P51843).
T4 sequence (P51843 whole entry): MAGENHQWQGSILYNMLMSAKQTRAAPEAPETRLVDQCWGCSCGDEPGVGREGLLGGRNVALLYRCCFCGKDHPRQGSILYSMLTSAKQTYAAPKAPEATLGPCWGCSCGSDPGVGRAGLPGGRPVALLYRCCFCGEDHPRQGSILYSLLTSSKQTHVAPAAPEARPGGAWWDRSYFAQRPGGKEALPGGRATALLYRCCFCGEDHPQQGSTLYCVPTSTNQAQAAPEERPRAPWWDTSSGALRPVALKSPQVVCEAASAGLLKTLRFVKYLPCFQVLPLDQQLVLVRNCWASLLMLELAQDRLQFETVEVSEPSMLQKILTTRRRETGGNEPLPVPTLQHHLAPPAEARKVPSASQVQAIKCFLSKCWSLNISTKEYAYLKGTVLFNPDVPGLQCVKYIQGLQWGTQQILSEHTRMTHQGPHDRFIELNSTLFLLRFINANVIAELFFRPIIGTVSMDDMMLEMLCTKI
The format is functional, cell-based.

Assay [14] can be described thus: cells. The format is functional, cell-based.
Assay [15] in a line: THP-1 cell cytotoxicity, dose response, cytotoxicity control for Vif-APOBEC3G degradation inhibitor project, THP-1 cells (AID 1117359). The format is functional. The conditions noted are these: Human immunodeficiency virus 1, THP-1.
A further assay relates to H9c2. The experiment in a line: cells. As to conditions: Rattus norvegicus, H9c2, Myocardium. The format is functional, cell-based.
A short description of assay [16]: PAX5 activity inhibitors, dose response, selectivity assay for PAX8 inhibitor project, cell-based, plate reader, dry powder samples (AID 743047).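 Note: HEK293 cells carrying a Pax5 driven CD19 promoter luciferase reporter; potency of inhibitors that lower reporter luminescence.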 Type of assay: functional.
The next assay concerns the target Paired box protein Pax-8 (Homo sapiens, UniProt Q06710). The experiment in a line: inhibitors of PAX8-driven TPO luciferase reporter, dose response, RMG-I cells, cherry-pick (AID 687027).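 Note: luciferase reporter driven by Pax8 target thyroperoxidase promoter measured by SteadyGlo luminescence.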 The format is functional, cell-based. A general note: Reporter assays use an easily measured gene product as a stand-in for the process of interest.
The nature of assay [17]: cytotoxicity in COV434 cells, dose response, cytotoxicity control for PAX8 inhibitor project, cell-based, plate reader, dry powder, SA7 (AID 743145). Type of assay: functional.
Assay [18] can be described thus: PAX2 cell-based inhibition, dose response, selectivity assay for PAX8 inhibitor project, plate reader, dry powder samples (AID 743048).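 Note: HEK293 cells carrying a WT1 promoter luciferase reporter driven by expressed Pax2; potency is for inhibition of Pax2 driven reporter signal.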 Type of assay: functional.
Assay [19] is described as follows: cytotoxicity dependent on PAX8, dose response, cell-based, plate reader, dry powder (AID 743049). The format is functional.

Each structure is given as a SMILES string. Active and inactive are the calls of the source. Where only a bound is given, the exact number is not on record here.

Chain of Paired box protein Pax-8 (Q06710 whole entry): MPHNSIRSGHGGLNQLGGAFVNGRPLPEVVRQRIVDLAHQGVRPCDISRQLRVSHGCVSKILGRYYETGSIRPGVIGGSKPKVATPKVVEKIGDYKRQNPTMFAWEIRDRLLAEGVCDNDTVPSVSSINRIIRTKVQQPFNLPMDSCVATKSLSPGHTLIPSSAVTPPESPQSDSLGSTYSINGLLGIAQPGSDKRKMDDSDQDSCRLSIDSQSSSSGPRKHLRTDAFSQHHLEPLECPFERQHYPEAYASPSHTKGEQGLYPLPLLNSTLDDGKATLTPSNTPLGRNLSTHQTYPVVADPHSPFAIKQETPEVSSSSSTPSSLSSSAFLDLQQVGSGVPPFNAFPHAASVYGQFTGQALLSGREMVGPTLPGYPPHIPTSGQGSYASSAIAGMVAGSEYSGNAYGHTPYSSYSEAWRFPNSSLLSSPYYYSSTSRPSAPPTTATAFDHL

As usually defined, the EC50 is the concentration giving half of the maximal effect. In general, IC50 refers to the concentration that gives 50% inhibition. With `O=C(/C=C/Nc1ccc(F)c(Cl)c1)c1ccco1`, the EC50 (in [1]; in “cells [2]”) was > 67.5 µM (inactive) each time. Also, the IC50 on Protein skinhead-1 is 25.2 µM (active).

By AC50 is commonly meant the concentration at which the activity in the assay is half-maximal. As to `C[C@@H]1CN([C@@H](C)CO)C(=O)c2ccccc2-c2ccccc2CO[C@H]1CN(C)C(=O)Nc1cccc(C(F)(F)F)c1`, the AC50 in [3] was 2.38 µM (active); in assay [4], 8.76 µM (active); in assay [5], 1.55 µM (active); in assay [6] it was > 100 µM (inactive); in assay [7], 1.03 µM (active); in assay [8], 0.779 µM (active).

Turning to `c1ccc(CNC2=Nc3ccccc3CS2)nc1`, in assay [9], the EC50 was > 67.5 µM (inactive).

`COc1ccc(S(=O)(=O)Nc2ccc(Nc3ccccc3)cc2)cc1`: the IC50 in assay [10] was > 69.5 µM (inactive); in assay [11], 12 µM (inactive).

As for `O=C(CCN1C(=O)/C(=C\C=C\c2ccccc2)SC1=S)Nc1cccc(C(=O)O)c1`, the IC50 in assay [12] was 4.8 µM (active); in assay [13], > 67.5 µM (inactive); in “cells [14]”, > 67.5 µM (inactive).

By CC50 is commonly meant the concentration giving 50% cytotoxicity. With `CCOc1ccc2nc(O)c(CN(Cc3nnnn3Cc3ccco3)C3CCCCC3)cc2c1`, the CC50 in assay [15] is > 40 µM (active). The IC50 in the assay with H9c2 is 25.5 µM (active).

`O=c1oc2ccccc2cc1-c1nc2c(s1)CCCC2`: the figures for the IC50 (in assay [13]; in the assay “cells [14]”) were > 0.278 µM (active) and > 67.5 µM (inactive), respectively.

Turning to `C[C@H](CO)N1C[C@H](C)[C@@H](CN(C)S(=O)(=O)c2ccc(Cl)cc2)OCCCC[C@H](C)Oc2ccc(NS(=O)(=O)c3ccccc3)cc2C1=O`, the AC50 was 26.3 µM (active) in assay [16]; 6.52 µM (active) at Paired box protein Pax-8; 27.6 µM (active) in [17]; 23.7 µM (active) in assay [18]; 14 µM (active) in assay [19].

(Values after ChEMBL document CHEMBL1201862, “PubChem BioAssay data set” (2004).)
